Patent publication US9993494B2, “Compositions and methods for treating fibrotic disease” (eFFECTOR Therapeutics, Inc., priority 2014, dated 2018)

Test system: normal human lung fibroblasts
Assay: Ribosomal profiling: translational efficiency in TGFβ-treated fibroblasts
Type: cell-based
Conditions: TGFβ-treated fibroblasts
Protocol: Ribosomal profiling allows for measurement of changes in transcription and translation on a genome-wide basis accompanying TGFβ-dependent transformation of fibroblasts to myofibroblasts. Ribosomal profiles of the TGFβ-treated fibroblasts from Example 1 (about 6×10^6 cells/10 cm plate) were prepared and analyzed for changes in translational efficiencies with respect to potential disease-associated cellular changes accompanying this TGFβ-induced transformation.
Briefly, cells were washed with cold PBS supplemented with cycloheximide and lysed with 1× mammalian cell lysis buffer for 10 minutes on ice. Lysates were clarified by centrifugation for 10 minutes at 14,000 rpm and supernatants were collected. Cell lysates were processed to generate ribosomal protected fragments and total mRNA according to the instructions included with the ARTseq Ribosome Profiling Kit (Illumina, San Diego, Calif.). Sequencing of total RNA (RNA) and of ribosome-protected fragments of RNA (RPF) was carried out using RNA-Seq methodology according to the manufacturer's instructions (Illumina). To analyze the ribosomal profiles, RNA-Seq reads were processed with tools from the FASTX-Toolkit (fastq_quality_trimmer, fastx_clipper and fastx_trimmer). Unprocessed and processed reads were evaluated for a variety of quality measures using FastQC, and processed reads were mapped to the human genome using TopHat (see, e.g., Trapnell et al., Bioinformatics 25:1105, 2009). Gene-by-gene assessment of the number of fragments strictly and uniquely mapping to the coding region of each gene was conducted using HTSeq-count, a component of the HTSeq package. […] Genes with low counts in either RPF or RNA were excluded from differential analyses. Pathway and network analyses of differential data were conducted using Ingenuity Pathway Analysis (IPA).

## Cc1cc(C2CCCCC2)n(O)c(=O)c1.NCCO [CPX, ciclopirox oloamine]
Gene RPS6 (ENSG00000137154)
  effect in renormalizing the translational profile of the gene: − (− = <0.9)
Gene RPS6KA5 (ENSG00000100784)
  effect in renormalizing the translational profile of the gene: − (− = <0.9)
Gene RPS7 (ENSG00000171863)
  effect in renormalizing the translational profile of the gene: − (− = <0.9)
Gene RPS8 (ENSG00000142937)
  effect in renormalizing the translational profile of the gene: − (− = <0.9)
Gene RPS9 (ENSG00000170889)
  effect in renormalizing the translational profile of the gene: − (− = <0.9)
Gene RPS10 (ENSG00000124614)
  effect in renormalizing the translational profile of the gene: − (− = <0.9)
Gene RPS11 (ENSG00000142534)
  effect in renormalizing the translational profile of the gene: − (− = <0.9)
Gene RPS12 (ENSG00000112306)
  effect in renormalizing the translational profile of the gene: − (− = <0.9)
Gene RPS13 (ENSG00000110700)
  effect in renormalizing the translational profile of the gene: − (− = <0.9)
Gene RPS14 (ENSG00000164587)
  effect in renormalizing the translational profile of the gene: − (− = <0.9)
Gene RPS15 (ENSG00000115268)
  effect in renormalizing the translational profile of the gene: − (− = <0.9)
Gene RPS15A (ENSG00000134419)
  effect in renormalizing the translational profile of the gene: − (− = <0.9)
Gene RPS16 (ENSG00000105193)
  effect in renormalizing the translational profile of the gene: − (− = <0.9)
Gene RPS18 (ENSG00000231500)
  effect in renormalizing the translational profile of the gene: − (− = <0.9)
Gene RPS19 (ENSG00000105372)
  effect in renormalizing the translational profile of the gene: − (− = <0.9)
Gene RPS20 (ENSG00000008988)
  effect in renormalizing the translational profile of the gene: − (− = <0.9)
Gene RPS21 (ENSG00000171858)
  effect in renormalizing the translational profile of the gene: − (− = <0.9)
Gene RPS23 (ENSG00000186468)
  effect in renormalizing the translational profile of the gene: − (− = <0.9)
Gene RPS24 (ENSG00000138326)
  effect in renormalizing the translational profile of the gene: − (− = <0.9)
Gene RPS25 (ENSG00000118181)
  effect in renormalizing the translational profile of the gene: − (− = <0.9)
Gene RPS26 (ENSG00000197728)
  effect in renormalizing the translational profile of the gene: − (− = <0.9)
Gene RPS27 (ENSG00000177954)
  effect in renormalizing the translational profile of the gene: − (− = <0.9)
Gene RPS27A (ENSG00000143947)
  effect in renormalizing the translational profile of the gene: − (− = <0.9)
Gene RPS28 (ENSG00000233927)
  effect in renormalizing the translational profile of the gene: + (+ = 0.9 to 1.5)
Gene RPS29 (ENSG00000213741)
  effect in renormalizing the translational profile of the gene: − (− = <0.9)
Gene RPSA (ENSG00000168028)
  effect in renormalizing the translational profile of the gene: − (− = <0.9)
Gene RTN2 (ENSG00000125744)
  effect in renormalizing the translational profile of the gene: − (− = <0.9)
Gene SEMA3A (ENSG00000075213)
  effect in renormalizing the translational profile of the gene: − (− = <0.9)
Gene SGIP1 (ENSG00000118473)
  effect in renormalizing the translational profile of the gene: − (− = <0.9)
Gene SH3BGR (ENSG00000185437)
  effect in renormalizing the translational profile of the gene: − (− = <0.9)
Gene SHC3 (ENSG00000148082)
  effect in renormalizing the translational profile of the gene: +++ (+++ = >2.0)
Gene SLC2A12 (ENSG00000146411)
  effect in renormalizing the translational profile of the gene: − (− = <0.9)
Gene SLC7A7 (ENSG00000155465)
  effect in renormalizing the translational profile of the gene: − (− = <0.9)
Gene SLC15A3 (ENSG00000110446)
  effect in renormalizing the translational profile of the gene: − (− = <0.9)
Gene SLC25A6 (ENSG00000169100)
  effect in renormalizing the translational profile of the gene: − (− = <0.9)
Gene SLC40A1 (ENSG00000138449)
  effect in renormalizing the translational profile of the gene: ++ (++ = 1.5 to 2.0)
Gene SMO (ENSG00000128602)
  effect in renormalizing the translational profile of the gene: − (− = <0.9)
Gene SNRPA (ENSG00000077312)
  effect in renormalizing the translational profile of the gene: − (− = <0.9)
Gene SOX5 (ENSG00000134532)
  effect in renormalizing the translational profile of the gene: − (− = <0.9)
Gene SOX6 (ENSG00000110693)
  effect in renormalizing the translational profile of the gene: − (− = <0.9)
Gene SPATA6 (ENSG00000132122)
  effect in renormalizing the translational profile of the gene: − (− = <0.9)
Gene STAMBPL1 (ENSG00000138134)
  effect in renormalizing the translational profile of the gene: + (+ = 0.9 to 1.5)
Gene STS (ENSG00000101846)
  effect in renormalizing the translational profile of the gene: − (− = <0.9)
Gene SYNE2 (ENSG00000054654)
  effect in renormalizing the translational profile of the gene: − (− = <0.9)
Gene TAF1D (ENSG00000166012)
  effect in renormalizing the translational profile of the gene: − (− = <0.9)
Gene TDG (ENSG00000139372)
  effect in renormalizing the translational profile of the gene: − (− = <0.9)
Gene TEN1 (ENSG00000257949)
  effect in renormalizing the translational profile of the gene: − (− = <0.9)
Gene TET2 (ENSG00000168769)
  effect in renormalizing the translational profile of the gene: − (− = <0.9)
Gene TET3 (ENSG00000187605)
  effect in renormalizing the translational profile of the gene: − (− = <0.9)
Gene TGFBI (ENSG00000120708)
  effect in renormalizing the translational profile of the gene: − (− = <0.9)
Gene THBS3 (ENSG00000169231)
  effect in renormalizing the translational profile of the gene: − (− = <0.9)
Gene THG1L (ENSG00000113272)
  effect in renormalizing the translational profile of the gene: − (− = <0.9)
Gene TIMM9 (ENSG00000100575)
  effect in renormalizing the translational profile of the gene: − (− = <0.9)
Gene TKT (ENSG00000163931)
  effect in renormalizing the translational profile of the gene: − (− = <0.9)
Gene TMTC1 (ENSG00000133687)
  effect in renormalizing the translational profile of the gene: − (− = <0.9)
Gene TOMM7 (ENSG00000196683)
  effect in renormalizing the translational profile of the gene: + (+ = 0.9 to 1.5)
Gene TOP2A (ENSG00000131747)
  effect in renormalizing the translational profile of the gene: − (− = <0.9)
Gene TPGS1 (ENSG00000141933)
  effect in renormalizing the translational profile of the gene: − (− = <0.9)
Gene TPM2 (ENSG00000198467)
  effect in renormalizing the translational profile of the gene: − (− = <0.9)
Gene TPT1 (ENSG00000133112)
  effect in renormalizing the translational profile of the gene: − (− = <0.9)
Gene TRERF1 (ENSG00000124496)
  effect in renormalizing the translational profile of the gene: − (− = <0.9)
Gene UBA52 (ENSG00000221983)
  effect in renormalizing the translational profile of the gene: − (− = <0.9)
Gene UQCRB (ENSG00000156467)
  effect in renormalizing the translational profile of the gene: − (− = <0.9)
Gene UTRN (ENSG00000152818)
  effect in renormalizing the translational profile of the gene: − (− = <0.9)
Gene VIM (ENSG00000026025)
  effect in renormalizing the translational profile of the gene: − (− = <0.9)
Gene ZNF581 (ENSG00000171425)
  effect in renormalizing the translational profile of the gene: − (− = <0.9)
